How the values were obtained:
U-2 OS cells = assay: Cell cycle analysis by flow cytometry; type: cell-based, human; settings: 1 µM, 24 h
Method: After treatment with the compounds, cells were trypsinized and washed once in PBS. Cells were fixed for 1 h in ice-cold 70% ethanol, then washed once in PBS, centrifuged at 200 g and resuspended in a PBS buffer containing 100 µg/ml RNase A (Thermo Scientific) and 40 µg/ml propidium iodide (Life Technologies). DNA content was determined using a flow cytometer Attune^TM NxT (Thermofisher) and ten thousand events were collected in each run. The data were analysed using FCS Express 7 Pro software (De Novo).

[1] = design: method as in PMID 22305342; settings: cited from earlier work

CCCNc1ccc2ncc(-c3ccc4[nH]ncc4c3)n2n1 [CHR-6494, reference compound]
% of cycling cells G2/M (U-2 OS cells; DMSO control 6%): 17% | % of cycling cells S (U-2 OS cells; DMSO control 44%): 38% | % of cycling cells G1 (U-2 OS cells; DMSO control 50%): 45%

O=c1oc2ccc(O)cc2c2c1[nH]c1ccccc12 [Compound 1a]
Stability in basic media [1]: instability in basic media

O=c1oc2ccc(O)cc2c2c1[nH]c1cc(O)ccc12 [Compound 1b]
Stability in basic media [1]: instability in basic media
